Experimental data as given in article PMC2778353, “Toxicity of Xanthene Food Dyes by Inhibition of Human Drug-Metabolizing Enzymes in a Noncompetitive Manner” (Journal of Environmental and Public Health, 2009).
Read-outs that look alike come from different tables or passages of the source.

Experiments:
UGT1A6 [1] = target: T1, UGT1A6 (Homo sapiens, UniProt P19224); assay: Inhibition of UGT1A6 activity (glucuronidation of p-nitrophenol) in pooled human liver microsomes; conditions: for Difference of UGT1A6 activity between dark and light: 0.3 mM p-NP
T1 sequence (P19224 27-532): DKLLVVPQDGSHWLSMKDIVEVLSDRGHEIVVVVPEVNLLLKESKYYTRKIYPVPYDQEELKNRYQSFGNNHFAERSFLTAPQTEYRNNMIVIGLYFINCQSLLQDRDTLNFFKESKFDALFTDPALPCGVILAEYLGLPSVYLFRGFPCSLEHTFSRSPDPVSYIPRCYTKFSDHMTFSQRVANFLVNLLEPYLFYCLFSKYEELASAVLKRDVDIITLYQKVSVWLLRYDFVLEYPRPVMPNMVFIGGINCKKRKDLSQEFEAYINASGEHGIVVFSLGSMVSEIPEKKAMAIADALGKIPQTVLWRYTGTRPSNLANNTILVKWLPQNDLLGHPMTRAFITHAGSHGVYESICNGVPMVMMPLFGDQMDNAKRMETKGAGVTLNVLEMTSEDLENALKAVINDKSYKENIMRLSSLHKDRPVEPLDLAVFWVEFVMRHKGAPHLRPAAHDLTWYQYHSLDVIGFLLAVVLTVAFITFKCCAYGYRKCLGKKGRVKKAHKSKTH
Experimental: (§2) The enzyme source to measure CYP2A6, CYP3A4, and UGT1A6 activities was pooled human liver microsomes (HLMs), purchased from Gentest (Woburn, MA, USA). […] These enzymes were stored at −80°C.
(§3) The microassay method of UGT activity in this study was carried out according to previous reports [5, 51]. […] In order to investigate the role of reactive oxygen species on the inhibition of UGT1A6 by dyes, we studied the effect of SOD and catalase.
(§4) The inhibition of UGT1A6 activity with p-nitrophenol [5] and of UGT2B7 with androsterone by dyes was studied.

CYP3A4 = target: T2, CYP3A4 (Homo sapiens, UniProt P08684); assay: Inhibition of CYP3A4 activity in pooled human liver microsomes (7-benzoyloxy-4-(trifluoromethyl)-coumarin substrate); type: biochemical; conditions: for IC50: pooled human liver microsomes
T2 construct: pooled human liver microsomes (HLMs), purchased from Gentest; tissue Gentest (Woburn, MA, USA); host or cells: pooled human liver microsomes
Experimental: (§1) These enzymes were stored at −80°C. Superoxide dismutase (SOD) and catalase are products of Sigma.
CYP3A4 is a major enzyme among phase I drug-metabolizing enzymes and reacts with half of all drugs. To determine the influence of CYP3A4 activity by food dyes, the color of dyes influencing the fluorometric measurement over 30 μM dye concentration was measured. This background was subtracted from the measurement of color pigments.

P-glycoprotein = P-glycoprotein (Homo sapiens, UniProt P08183); assay: in vitro
Experimental: as §1

UGT2B7 = target: T3, UGT2B7 (Homo sapiens, UniProt P16662); assay: Inhibition of UGT2B7 activity (glucuronidation of androsterone), Sf9 cell membrane; type: biochemical
T3 construct: purchased Gentest; host or cells: Sf9 cells, baculovirus expression system
T3 sequence (P16662 24-529): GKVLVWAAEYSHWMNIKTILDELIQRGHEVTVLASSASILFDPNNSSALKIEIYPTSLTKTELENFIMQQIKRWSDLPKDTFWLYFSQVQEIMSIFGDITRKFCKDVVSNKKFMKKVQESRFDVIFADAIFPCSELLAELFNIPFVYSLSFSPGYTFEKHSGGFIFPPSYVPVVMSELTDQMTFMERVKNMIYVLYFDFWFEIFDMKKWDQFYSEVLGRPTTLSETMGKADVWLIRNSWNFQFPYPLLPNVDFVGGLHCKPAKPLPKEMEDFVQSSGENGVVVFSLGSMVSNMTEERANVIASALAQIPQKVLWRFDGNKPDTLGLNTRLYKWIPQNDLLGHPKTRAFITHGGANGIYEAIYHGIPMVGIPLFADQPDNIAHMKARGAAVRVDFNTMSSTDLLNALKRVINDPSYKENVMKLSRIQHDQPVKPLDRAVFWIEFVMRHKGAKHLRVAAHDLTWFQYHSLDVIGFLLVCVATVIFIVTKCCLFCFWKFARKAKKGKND
Experimental: as §1

UGT1A6 [2] = target: T1, UGT1A6; assay: in vitro
Experimental: as §2, §3, §4

[3] = target: P-glycoprotein (ATPase activity) (Homo sapiens, UniProt P08183); assay: in vitro; conditions: human
Experimental: as §1

[4] = read-out: IC50 value P-glycoprotein, ATPase activity of P-gp membrane
[5] = human, pooled human liver microsomes, probe p-nitrophenol
[6] = human, probe 7-benzoyloxy-4-(trifluoromethyl)-coumarin
[7] = glucuronidation inhibition by RB

T2 sequence (P08684 whole entry): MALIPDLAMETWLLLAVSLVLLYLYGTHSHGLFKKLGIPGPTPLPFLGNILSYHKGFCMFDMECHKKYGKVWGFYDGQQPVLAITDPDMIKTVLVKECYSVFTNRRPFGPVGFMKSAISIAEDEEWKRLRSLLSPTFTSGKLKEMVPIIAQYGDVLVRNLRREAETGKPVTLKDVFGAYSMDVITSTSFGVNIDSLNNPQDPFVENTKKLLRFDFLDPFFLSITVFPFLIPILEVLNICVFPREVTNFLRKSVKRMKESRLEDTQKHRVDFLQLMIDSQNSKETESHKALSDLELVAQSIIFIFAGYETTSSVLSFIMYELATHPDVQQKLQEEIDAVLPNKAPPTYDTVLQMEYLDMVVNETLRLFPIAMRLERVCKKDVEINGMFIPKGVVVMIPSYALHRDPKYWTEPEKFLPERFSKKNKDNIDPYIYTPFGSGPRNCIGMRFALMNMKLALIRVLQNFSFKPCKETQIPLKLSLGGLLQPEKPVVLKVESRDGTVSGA
Sequence of P-glycoprotein (P08183 whole entry): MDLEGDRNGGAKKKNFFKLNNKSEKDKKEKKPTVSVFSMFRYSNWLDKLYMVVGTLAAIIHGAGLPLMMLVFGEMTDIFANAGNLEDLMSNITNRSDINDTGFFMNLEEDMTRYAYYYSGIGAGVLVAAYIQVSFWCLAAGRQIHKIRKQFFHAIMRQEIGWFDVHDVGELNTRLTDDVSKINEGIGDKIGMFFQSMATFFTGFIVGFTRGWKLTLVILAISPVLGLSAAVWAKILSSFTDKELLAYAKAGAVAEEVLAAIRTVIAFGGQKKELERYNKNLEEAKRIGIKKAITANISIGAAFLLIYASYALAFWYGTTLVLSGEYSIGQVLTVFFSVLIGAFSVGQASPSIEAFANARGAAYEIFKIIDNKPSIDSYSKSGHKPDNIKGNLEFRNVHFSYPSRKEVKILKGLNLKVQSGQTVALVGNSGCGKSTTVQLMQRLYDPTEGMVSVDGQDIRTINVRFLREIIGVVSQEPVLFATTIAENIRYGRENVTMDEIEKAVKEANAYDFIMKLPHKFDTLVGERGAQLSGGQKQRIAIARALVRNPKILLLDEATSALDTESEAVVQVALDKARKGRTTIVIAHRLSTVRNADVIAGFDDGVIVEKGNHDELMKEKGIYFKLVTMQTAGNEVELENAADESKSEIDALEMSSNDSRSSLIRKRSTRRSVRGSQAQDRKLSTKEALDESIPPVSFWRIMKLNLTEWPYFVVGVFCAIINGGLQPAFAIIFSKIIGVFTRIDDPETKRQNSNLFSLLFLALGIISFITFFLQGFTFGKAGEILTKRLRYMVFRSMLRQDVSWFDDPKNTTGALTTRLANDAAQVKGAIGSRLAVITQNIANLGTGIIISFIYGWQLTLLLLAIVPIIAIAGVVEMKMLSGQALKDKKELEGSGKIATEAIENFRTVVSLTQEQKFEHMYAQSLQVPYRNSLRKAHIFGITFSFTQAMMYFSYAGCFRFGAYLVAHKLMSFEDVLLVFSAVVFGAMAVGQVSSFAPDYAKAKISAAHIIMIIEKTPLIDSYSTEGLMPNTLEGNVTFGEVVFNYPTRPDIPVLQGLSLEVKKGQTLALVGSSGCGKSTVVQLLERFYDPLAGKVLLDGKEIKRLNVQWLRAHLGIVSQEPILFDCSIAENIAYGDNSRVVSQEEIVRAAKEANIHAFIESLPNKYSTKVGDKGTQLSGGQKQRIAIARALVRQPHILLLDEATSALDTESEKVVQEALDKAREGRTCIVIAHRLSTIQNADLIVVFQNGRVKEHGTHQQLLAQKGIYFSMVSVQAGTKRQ
Sequence of P-glycoprotein (ATPase activity) (P08183 whole entry): as above

In the case of `COc1cc(S(=O)(=O)[O-])c(C)cc1N=Nc1c(O)ccc2cc(S(=O)(=O)[O-])ccc12.[Na+].[Na+]` [Allura red (AL), allura red], the “Inhibition of UGT1A6 activity (in words)” value (UGT1A6 [1]) is reported as “insignificant inhibition”, the IC50 (CYP3A4) is reported as greater than 1000 µM and the IC50 (P-glycoprotein; [4]) is reported as greater than 1000 µM.
For `O=S(=O)([O-])c1ccc2c(N=Nc3ccc(S(=O)(=O)[O-])c4ccccc34)c(O)c(S(=O)(=O)[O-])cc2c1.[Na+].[Na+].[Na+]` [Amaranth (AM), amaranth], the “Inhibition of UGT1A6 activity (in words)” value (UGT1A6 [1]) was “insignificant inhibition”, the “Inhibition of CYP3A4 (in words)” value (CYP3A4) was “noninhibition” and the IC50 (CYP3A4) was greater than 1000 µM. For the same compound, the IC50 (P-glycoprotein) was greater than 1000 µM.
`CCN(Cc1cccc(S(=O)(=O)[O-])c1)c1ccc(C(=C2C=CC(=[N+](CC)Cc3cccc(S(=O)(=O)[O-])c3)C=C2)c2ccccc2S(=O)(=O)[O-])cc1.[Na+].[Na+]` [Brilliant blue FCF (BB), brilliant blue FCF] was tested, and the “Inhibition of UGT1A6 activity (in words)” value (UGT1A6 [1]) was “insignificant inhibition”, the IC50 (CYP3A4) was greater than 1000 µM and the IC50 (P-glycoprotein) was greater than 1000 µM.
`O=C(O)c1cc(N=C=S)ccc1-c1c2cc(Br)c(=O)c(Br)c-2oc2c(Br)c(O)c(Br)cc12` [Dye E5ic, Eosin-5-isothiocyanate, reference compound] showed an IC50 (UGT1A6 [1]; [5]) of 70 µM.
`O=C1OC2(c3ccccc31)c1cc(I)c(O)c(I)c1Oc1c2cc(I)c(O)c1I` [Erythrosine B (ET), erythrosine] was tested, and the IC50 (UGT1A6 [1]) was 50 µM, the “Inhibition of UGT1A6 activity (in words)” value (UGT1A6 [1]) was “greatest inhibition” and the “Substrate activity for UGT1A6” value (UGT1A6 [1]) was “no substrate activity”. For the same compound, the “Type of inhibition of UGT1A6 (Lineweaver-Burk plots)” value (shortened to “Type of inhibition of UGT1A6”) (UGT1A6 [1]) was “non-competitive”, the IC50 (UGT1A6 [1]; [5]) was 70 µM and the “Inhibition of CYP3A4 at 30 μM” value (CYP3A4; 30 μM dye) was “completely inhibited”. The IC50 (P-glycoprotein) was 15.6 µM, the “Inhibition of P-gp (in words)” value (P-glycoprotein) was “well inhibited” and the “Type of inhibition of UGT2B7” value (UGT2B7) was “non-competitive”. For the same compound, the “Inhibition of UGT2B7 (in words)” value (UGT2B7; androsterone glucuronidation) was “inhibited”.
In the case of `O=C1/C(=C2\Nc3ccc(S(=O)(=O)[O-])cc3C2=O)Nc2ccc(S(=O)(=O)[O-])cc21.[Na+].[Na+]` [Indigo carmine (ID), indigo carmine], the “Inhibition of UGT1A6 activity (in words)” value (UGT1A6 [1]) is reported as “no inhibition”, the IC50 (CYP3A4) is reported as greater than 1000 µM and the IC50 (P-glycoprotein) is reported as greater than 1000 µM.
With `[N-]=[N+]=[N-].[Na+]` [NaN3, reference compound] the “Prevention of RB inhibition of UGT1A6 by 1O2 quencher” value (from here on “Prevention of RB inhibition of UGT1A6”) (UGT1A6 [1]) was “significantly prevented” and the “Inhibition of glucuronidation of p-NP by UGT1A6 by quencher itself” value (from here on “Inhibition of glucuronidation of p-NP”) (UGT1A6 [1]; 1 to 20 mM) was “no inhibition”.
Compound `O=S(=O)(O)c1cc(S(=O)(=O)O)c2c(N=Nc3ccc(S(=O)(=O)O)c4ccccc34)c(O)ccc2c1` [New coccine (NC), new coccine] has an IC50 (UGT1A6 [1]; read-out: IC50 value UGT1A6, pooled human liver microsomes, p-nitrophenol glucuronidation) greater than 1000 µM, an IC50 (CYP3A4) greater than 1000 µM and an IC50 (P-glycoprotein; [4]) greater than 1000 µM.
For `O=C(O)c1c(Cl)c(Cl)c(Cl)c(Cl)c1-c1c2cc(Br)c(=O)c(Br)c-2oc2c(Br)c(O)c(Br)cc12` [Phloxine (PL), phloxine], the “Type of inhibition of UGT1A6” value (UGT1A6 [1]) was “non-competitive”, the “Inhibition of CYP3A4 (in words)” value (CYP3A4) was “showed inhibition” and the IC50 (CYP3A4; [6]) was 5.6 µM. The IC50 (UGT1A6 [2]) was 40 µM, the IC50 [3] was 24.5 µM and the “Inhibition of P-gp (in words)” value (P-glycoprotein) was “well inhibited”. For the same compound, the “Type of inhibition of UGT2B7” value (UGT2B7) was “non-competitive”.
For `O=C(O)c1c(Cl)c(Cl)c(Cl)c(Cl)c1-c1c2cc(I)c(=O)c(I)c-2oc2c(I)c(O)c(I)cc12` [Rose Bengal (RB), rose bengal], the “Type of inhibition of UGT1A6” value (UGT1A6 [1]) was “non-competitive”, the “Difference of UGT1A6 activity between dark and light” value (UGT1A6 [1]; 0.1 mM RB) was “could not find a significant difference” and the “Difference of UGT1A6 activity between dark and light” value (UGT1A6 [1]; 0.01, 0.02, and 0.05 mM RB) was “significant difference”. The “UGT1A6 activity in D2O relative to H2O in presence of RB” value (UGT1A6 [1]; D2O solution versus water) was “approximately half”, the IC50 (UGT1A6 [1]; [5]) was 15 µM and the “Inhibition of CYP3A4 (in words)” value (CYP3A4) was “showed inhibition”. For the same compound, the IC50 (CYP3A4; [6]) was 21.2 µM, the IC50 [3] was 11.7 µM and the “Inhibition of P-gp (in words)” value (P-glycoprotein) was “well inhibited”. The “Type of inhibition of UGT2B7” value (UGT2B7) was “non-competitive”.
With `O=S(=O)([O-])c1ccc(N=Nc2c(O)ccc3cc(S(=O)(=O)[O-])ccc23)cc1.[Na+].[Na+]` [Sunset yellow FCF (SY), sunset yellow FCF] the “Inhibition of UGT1A6 activity (in words)” value (UGT1A6 [1]) was “no inhibition”, the IC50 (CYP3A4) was greater than 1000 µM and the IC50 (P-glycoprotein; [4]) was greater than 1000 µM.
In the case of `O=C([O-])C1=NN(c2ccc(S(=O)(=O)[O-])cc2)C(=O)C1N=Nc1ccc(S(=O)(=O)[O-])cc1.[Na+].[Na+].[Na+]` (stereo not drawn) [Tartrazine (TT), tartrazine], the “Inhibition of UGT1A6 activity (in words)” value (UGT1A6 [1]) is reported as “no inhibition”, the IC50 (CYP3A4) is reported as greater than 1000 µM and the IC50 (P-glycoprotein) is reported as greater than 1000 µM.
`O=C(O)c1ccccc1-c1c2ccc(=O)cc-2oc2cc(O)ccc12` [Uranine, reference compound] was tested, and the “Inhibition of UGT1A6 activity (in words)” value (UGT1A6 [1]) was “did not inhibit” and the IC50 (UGT1A6 [1]; [5]) was greater than 1000 µM.
In the case of `c1ccc2c(c1)Cc1ccccc1O2` [Xanthene], the IC50 (UGT1A6 [1]) is reported as greater than 1000 µM and the “Inhibition of UGT1A6 activity (in words)” value (UGT1A6 [1]) is reported as “did not inhibit”.
With `N[C@@H](Cc1c[nH]cn1)C(=O)O` [histidine, reference compound] the “Inhibition of glucuronidation of p-NP” value (UGT1A6 [1]; 1 to 20 mM) was “no inhibition” and the “Prevention of RB inhibition of UGT1A6” value (UGT1A6 [1]; [7]) was “significantly prevented”.
In the case of `CC(=O)N(CC(O)CN(C(C)=O)c1c(I)c(C(=O)NCC(O)CO)c(I)c(C(=O)NCC(O)CO)c1I)c1c(I)c(C(=O)NCC(O)CO)c(I)c(C(=O)NCC(O)CO)c1I` (stereo not drawn) [iodixanol, reference compound], the “Inhibition of UGT1A6 activity (in words)” value (UGT1A6 [1]) is reported as “no inhibition”.
In the case of `CNC(=O)c1c(I)c(NC(C)=O)c(I)c(C(=O)O)c1I.CNC[C@H](O)[C@@H](O)[C@H](O)[C@H](O)CO` [meglumine iotalamate, reference compound], the “Inhibition of UGT1A6 activity (in words)” value (UGT1A6 [1]) is reported as “no inhibition”.
For `CCN(CC)c1ccc2c(-c3ccccc3C(=O)O)c3ccc(=[N+](CC)CC)cc-3oc2c1` [rhodamine, reference compound], the IC50 (UGT1A6 [1]) was greater than 1000 µM and the “Inhibition of UGT1A6 activity (in words)” value (UGT1A6 [1]) was “did not inhibit”.
In the case of `CC(=O)Nc1c(I)c(NC(C)=O)c(I)c(C(=O)[O-])c1I.[Na+]` [sodium diatrizoate, reference compound], the “Inhibition of UGT1A6 activity (in words)” value (UGT1A6 [1]) is reported as “no inhibition”.
With `CC1=C(/C=C/C(C)=C/C=C/C(C)=C/C=C/C=C(C)/C=C/C=C(C)/C=C/C2=C(C)CCCC2(C)C)C(C)(C)CCC1` [β-carotene, reference compound] the “Inhibition of glucuronidation of p-NP” value (UGT1A6 [1]; 0.2–0.5 mM) was “no inhibition” and the “Prevention of RB inhibition of UGT1A6” value (UGT1A6 [1]; [7]) was “did not”.
catalase was tested, and the “Prevention of ET inhibition of UGT1A6” value (UGT1A6 [1]; added to the mixture of UGT1A6 inhibition by ET) was “no prevention”.
